“Also recorded” adds a separate entry of the source.
How the values were obtained:
HLA-A2 = target: T1, HLA-A2 (Homo sapiens, UniProt P04439, D140Y/D185E/D98H/E176V/E277Q/G131W/G231S/I119V/I121R/I166T/I218V/L300P/L318F/N151K/N90K/P208A/P217A/Q86G/Q94H/R138H/R169H/T345S); experiment: T2 binding assay (HLA-A2 stabilisation on T2 cells, fluorescence index)
T1 construct: The T2 cell expresses HLA-A2 and is TAP1 and TAP2 deficient; endogenous in cells; host or cells: T2 cells
Method: The sequences are derived from HPV 16 E2. T2 cells were loaded with various concentrations of peptides. Level of surface class I molecules were assessed by flow cytometric analysis using mouse monoclonal antibodies specific for HLA-A2. Fluorescence index=Fluorescence after peptide stimulation/Fluorescence without peptide −1.
Since little was known about the MHC class I epitopes for E2, HLA-A2 binding sequences derived from HPV 16 E2 were investigated. […] To test the binding affinity of these peptides to HLA-A2, a T2 binding assay was performed. The T2 cell expresses HLA-A2 and is TAP1 and TAP2 deficient.

[1] = test system: wild type (SEQ ID NO: 1) and modified (SEQ ID NO: 9) E2 peptides; experiment: Elispot assay of mice immunized with wild type or modified E2 138-147 peptide; format: in vivo; details: mice immunized with the labelled peptide
[2] = test system: C1R.ADD target cells pulsed with E2 peptides; experiment: IFN-gamma ELISPOT assay in immunized AAD mice, response to E2; format: in vivo, HLA-A2 transgenic mice (AAD); details: for IFN-gamma producing cells (ELISPOT) / T cell response to E2 (IFN-gamma ELISPOT), in words: AAD mice; for IFN-gamma producing cells (ELISPOT): E2 peptides + GM-CSF + anti-CD40 in IFA, boosted with E2 peptides in IFA; for T cell response to E2 (IFN-gamma ELISPOT), in words: protocol as labelled
Source text: AAD Mice were immunized with three E2 peptides. […] A target cell, C1R.ADD, was pulsed with peptides. C1R.ADD alone was used as negative control, and E7 86-93 was used as a specificity control. Mice are immunized with the indicated 1st immunization and are then given the indicated 2nd immunization (booster immunization) four weeks later. The G1, G2, and G3 immunization protocols employed are as follows: G1 (1st immunization: IFA+GM-CSF+anti-CD40 antibody+E2 peptides; 2nd immunization: IFA+E2 peptides); G2 (1st immunization: IFA+GM-CSF+anti-CD40 antibody+E2 peptides; 2 immunization: none); G3 (1st immunization: none; 2nd immunization: IFA+E2 peptides).
AAD Mice were immunized with different combinations of VLP-E7E2 and E2 peptides with/without Gm-CSF and αCD40. Target cells were pulsed with E2 peptide. Immunization with E7 11-20 peptides is used as a control. The G1 and G2 immunization protocols employed are as follows: G1 (1st immunization: IFA+GM-CSF+anti-CD40 antibody+E2 69-77 peptides); G2 (1st immunization: L1-VLP-L2-E2-E7+GM-CSF+anti-CD40 antibody).
Target cells are C1R.ADD cells pulsed with the indicated peptides.
(§1) Immunization: Mice were immunized subcutaneously at the base of the tail with the chimeric VLPs. GM-CSF (Preprotech, Rocky Hill, N.J.) was given the day before and the same day as the VLP injection. Anti-CD40 (SouthernBiotech, Birmingham Ala.) was given with the VLP. Mice were also immunized with 50 nmoles of peptide in incomplete Freund's adjuvant (IFA) with or without GM-CSF (5 μg/mouse) and anti-CD40 (10 μg/mouse). All vaccines were prepared immediately prior to injection. Each group had 4 mice, and the pooled spleen cells from four mice were used for assays. 10 μg of VLP-E7E2 was given to a mouse. The MW of the VLP-E7E2 is about 5280 Kd (72×L1@55 Kd=3960 Kd, and 12×L2E7E2@110 kd=1320 Kd). The number of moles of VLP-E7E2 in 10 μg of total protein is about […].
ELISPOT assay: The number of IFN-gamma-producing cells is also determined by ELISPOT assay. The anti-IFN-gamma antibody, 5 μg/ml, in PBS are coated on Millipore's multiscreen-HA plate (Millipore, Marlborough, Mass.) overnight at 4° C. The plate is blocked by incubation in RPMI containing 10% FCS for 3 hours at room temperature, and then the plate is washed two or three times with PBS. Target cells, EL-4 or C1R.ADD, are incubated with or without peptides for 2 hour at room temperature, washed twice. Then, they were placed at 5,000 per well. The effector cells were from 40,000 to 50,000 per well. After a 20 hour incubation period at 37° C., the plate is washed six times with PBS containing 0.05% Tween 20. The biotin-labeled anti-IFN-gamma, at 2 μg/ml, is added to the plate. After a 3 hour incubation period at room temperature, the plate is washed six times, and developed using an ABC kit from Vector Lab (Burlingame, Calif.). The spots are counted using Immunspot™ CTL (Cleveland Ohio). Data are expressed as an average from triplicate wells.
Induction of CD8+ T Cell Response to E2 Peptides. […] One group of mice was boosted with E2 peptides in IFA emulsion (IFA-E2) two weeks later. An IFN-gamma ELISPOT assay was performed using spleen cells collected either two or four weeks after vaccination as shown in FIG. 14. The immunization protocol is shown in Table 4 below (50 nmoles of each immunogen was employed; “E2s” refers to E2 peptides).
Enhancing CTL Response to E2. […] When AAD mice were immunized with either 50 nmoles E2 69-77 with immune modulators in IFA or 24 pmoles of VLP-E7E2 with immune-modulators in aqueous solution, a marginal CD8+ T cell response to E2 was detected by ELISPOT assay using fresh isolated spleen cells from both groups of mice (FIG. 15, Panel A and Panel B). […]

[3] = test system: C1R.AAD target cells pulsed with E7 11-20 and E7 86-93 peptides; experiment: CTL assay (51Cr release) with spleen cells of immunized AAD mice, response to E7; format: in vivo, HLA-A2 transgenic mice (AAD); details: co-injected in aqueous solution
Method: as §1
(§2) CTL assay: Two (or three) weeks after immunization, spleens were aseptically removed and single cell suspensions are prepared. […] Cytolytic activity of cells is measured by a 4-h assay with ^51Cr-labeled EL-4 or C1R.AAD target cells in triplicate wells. Percent ^51Cr release is calculated as 100×(experimental release-spontaneous release)/(maximum release-spontaneous release). Maximum release is determined from supernatants of cells that are lysed by addition of […]. Spontaneous release is determined from target cells culture in medium. Data are expressed as an average from triplicate wells. […]

[4] = test system: EL-4 target cells pulsed with E7 49-57 peptides; experiment: CTL assay (51Cr release) with spleen cells of immunized C57BL/6 mice; format: in vivo; details: given in aqueous solution with VLP-E7E2
Method: as §1, §2

Molecule	binding to HLA-A2, in words (HLA-A2)	concentration at FI 0.5 (HLA-A2) [µM]	IFN-gamma producing cells (ELISPOT) [2] [spots/million]	T cell response to E2 (IFN-gamma ELISPOT), in words [2]	other results
RLNVCQDKIL [E2 7-16, HPV 16 E2 peptide]	no binding activity				
YLAEEASVTV [E2 138-147 modified]	higher HLA.A2 binding affinity				immune response to wild type and modified E2 peptides (Elispot) ([1]; listed as modified peptide (SEQ ID NO: 9)): elicit an immune response to both; immune response to wild type and modified E2 peptides (Elispot) ([1]; listed as new peptide (SEQ ID NO: 9)): more immunogenic
ALQAIELQL [E2 69-77, HPV 16 E2 peptide]	high binding affinity; also recorded: displayed binding ability	50	32	induce a CD8+ T cell response; also recorded: immunogenic	
YICEEASVTV [E2 138-147]	high binding affinity; also recorded: displayed binding ability	50	53	induce a CD8+ T cell response; also recorded: immunogenic	immune response to wild type and modified E2 peptides (Elispot) [1]: failed to elicit an immune response; IFN-gamma production (ELISPOT), response to E2 ([2]; boosted with E2 peptides in IFA four weeks after the initial immunization): more immunogenic
TLQDVSLEV [E2 93-101, HPV 16 E2 peptide]	did not bind; also recorded: no binding activity			did not elicit a T cell response	
IL-2: murine IL-2 (Preprotech) (protein, UniProt P04351 21-169, looked up) Interleukin-2: APTSSSTSSSTAEAQQQQQQQQQQQQHLEQLLMDLQELLSRMENYRNLKLPRMLTFKFYLPKQATELKDLQCLEDELGPLRHVLDLTQSKSFQLEDAENFISNIRVTVVKLKGSDNTFECQFDDESATVVDFLRRWIAFCQSIISTSPQ					effect of co-injection on the VLP-E7E2-induced CTL response to E7 [3]: no effect; effect on the VLP-E7E2 induced CTL response [4]: no effect

From patent US7691579B2, “Methods and compositions for producing an enhanced immune response to a human papillomavirus immunogen” (priority 2005, dated 2010)
